Test results taken from ChEMBL document CHEMBL5303573, “Mapping human microbiome drug metabolism by gut bacteria and their genes” (Nature, 2019).

What was measured:
[1] = The drug is tested on Bifidobacterium ruminantium strain: fecal isolate for biotransformation. The drug concentrations were measured before and after a 12-h incubation by liquid-chromatography-coupled mass spectrometry (LC–MS); settings: 2 µM
[2] = The drug is tested on Bacteroides xylanisolvens strain: DSM18836 for biotransformation. The drug concentrations were measured before and after a 12-h incubation by liquid-chromatography-coupled mass spectrometry (LC–MS); settings: 2 µM
[3] = The drug is tested on Clostridium hathewayi strain: DSM13479 for biotransformation. The drug concentrations were measured before and after a 12-h incubation by liquid-chromatography-coupled mass spectrometry (LC–MS); settings: hungatella hathewayi, 2 µM
[4] = The drug is tested on Clostridium ramosum strain: DSM1402 for biotransformation. The drug concentrations were measured before and after a 12-h incubation by liquid-chromatography-coupled mass spectrometry (LC–MS); settings: thomasclavelia ramosa, 2 µM
[5] = The drug is tested on Eubacterium rectale strain: ATCC33656 for biotransformation. The drug concentrations were measured before and after a 12-h incubation by liquid-chromatography-coupled mass spectrometry (LC–MS); settings: agathobacter rectalis, 2 µM
[6] = The drug is tested on Enterobacter cancerogenus strain: ATCC35316 for biotransformation. The drug concentrations were measured before and after a 12-h incubation by liquid-chromatography-coupled mass spectrometry (LC–MS); settings: 2 µM
Endoglucanase E (EGE) = target: T1, Endoglucanase E (EGE) (Bacteroides thetaiotaomicron, UniProt Q8AAL9); test: (§1) The drug is tested on Bacteroides thetaiotaomicron strain: VPI-5482 for biotransformation. The drug concentrations were measured before and after a 12-h incubation by liquid-chromatography-coupled mass spectrometry (LC–MS); format: ADME; parameters: dose 2 uM; settings: 2 µM
T1 sequence (Q8AAL9 whole entry): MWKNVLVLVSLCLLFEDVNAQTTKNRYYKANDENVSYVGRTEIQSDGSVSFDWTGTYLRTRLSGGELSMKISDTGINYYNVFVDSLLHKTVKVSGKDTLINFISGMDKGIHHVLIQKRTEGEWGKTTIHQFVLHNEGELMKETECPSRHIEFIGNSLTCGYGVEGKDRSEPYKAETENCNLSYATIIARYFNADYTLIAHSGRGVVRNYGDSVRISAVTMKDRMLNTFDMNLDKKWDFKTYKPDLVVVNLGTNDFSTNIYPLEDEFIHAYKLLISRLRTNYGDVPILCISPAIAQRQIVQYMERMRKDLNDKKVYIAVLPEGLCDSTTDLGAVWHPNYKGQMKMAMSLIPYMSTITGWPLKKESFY

Lipoprotein = target: T2, Lipoprotein (Bacteroides thetaiotaomicron, UniProt Q8A343); test: as §1; format: ADME; parameters: dose 2 uM; settings: 2 µM
T2 sequence (Q8A343 whole entry): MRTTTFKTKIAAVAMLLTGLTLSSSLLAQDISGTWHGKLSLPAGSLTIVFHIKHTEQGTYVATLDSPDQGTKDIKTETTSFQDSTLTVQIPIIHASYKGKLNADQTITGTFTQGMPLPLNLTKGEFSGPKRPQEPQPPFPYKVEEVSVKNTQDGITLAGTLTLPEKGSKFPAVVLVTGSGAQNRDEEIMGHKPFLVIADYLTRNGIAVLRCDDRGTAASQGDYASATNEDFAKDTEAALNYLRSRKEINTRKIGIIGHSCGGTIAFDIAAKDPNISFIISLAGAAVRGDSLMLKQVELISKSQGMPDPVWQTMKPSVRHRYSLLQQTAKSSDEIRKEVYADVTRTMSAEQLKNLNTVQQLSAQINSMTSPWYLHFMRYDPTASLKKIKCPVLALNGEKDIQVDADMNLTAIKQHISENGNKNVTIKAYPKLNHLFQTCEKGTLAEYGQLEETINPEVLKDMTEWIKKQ

Diguanylate cyclase = target: T3, Diguanylate cyclase (Collinsella aerofaciens, UniProt A4EB91); test: (§2) The drug is tested on Collinsella aerofaciens strain: ATCC25986 for biotransformation. The drug concentrations were measured before and after a 12-h incubation by liquid-chromatography-coupled mass spectrometry (LC–MS); format: ADME; parameters: dose 2 uM; settings: 2 µM
T3 sequence (A4EB91 whole entry): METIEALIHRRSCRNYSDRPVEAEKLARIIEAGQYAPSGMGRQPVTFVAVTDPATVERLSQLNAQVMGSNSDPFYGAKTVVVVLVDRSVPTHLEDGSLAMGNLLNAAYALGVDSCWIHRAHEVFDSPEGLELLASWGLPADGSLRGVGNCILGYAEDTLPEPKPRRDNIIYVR

Flavodoxin = target: T4, Flavodoxin (Collinsella aerofaciens, UniProt A4ED08); test: as §2; format: ADME; parameters: dose 2 uM; settings: 2 µM
T4 sequence (A4ED08 whole entry): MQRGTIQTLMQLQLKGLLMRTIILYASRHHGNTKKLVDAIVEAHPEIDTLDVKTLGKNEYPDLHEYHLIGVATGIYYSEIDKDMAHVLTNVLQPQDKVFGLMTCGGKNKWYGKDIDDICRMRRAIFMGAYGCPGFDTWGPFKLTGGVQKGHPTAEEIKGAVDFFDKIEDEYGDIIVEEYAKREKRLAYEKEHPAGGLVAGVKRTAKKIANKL

GDSL-like protein = target: T5, GDSL-like protein (Collinsella aerofaciens, UniProt A4E7D0); test: as §2; format: ADME; parameters: dose 2 uM; settings: 2 µM
T5 sequence (A4E7D0 whole entry): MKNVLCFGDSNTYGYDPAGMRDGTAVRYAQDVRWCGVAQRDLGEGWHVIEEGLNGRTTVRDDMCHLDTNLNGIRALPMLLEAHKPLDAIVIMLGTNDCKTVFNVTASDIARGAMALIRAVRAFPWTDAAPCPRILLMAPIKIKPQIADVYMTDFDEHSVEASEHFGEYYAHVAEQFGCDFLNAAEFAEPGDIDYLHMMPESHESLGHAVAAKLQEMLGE

[7] = target: T6, Pyridine nucleotide-disulfide oxidoreductase (Collinsella aerofaciens, UniProt A4EBM5); test: as §2; format: ADME; parameters: dose 2 uM; settings: 2 µM
T6 sequence (A4EBM5 whole entry): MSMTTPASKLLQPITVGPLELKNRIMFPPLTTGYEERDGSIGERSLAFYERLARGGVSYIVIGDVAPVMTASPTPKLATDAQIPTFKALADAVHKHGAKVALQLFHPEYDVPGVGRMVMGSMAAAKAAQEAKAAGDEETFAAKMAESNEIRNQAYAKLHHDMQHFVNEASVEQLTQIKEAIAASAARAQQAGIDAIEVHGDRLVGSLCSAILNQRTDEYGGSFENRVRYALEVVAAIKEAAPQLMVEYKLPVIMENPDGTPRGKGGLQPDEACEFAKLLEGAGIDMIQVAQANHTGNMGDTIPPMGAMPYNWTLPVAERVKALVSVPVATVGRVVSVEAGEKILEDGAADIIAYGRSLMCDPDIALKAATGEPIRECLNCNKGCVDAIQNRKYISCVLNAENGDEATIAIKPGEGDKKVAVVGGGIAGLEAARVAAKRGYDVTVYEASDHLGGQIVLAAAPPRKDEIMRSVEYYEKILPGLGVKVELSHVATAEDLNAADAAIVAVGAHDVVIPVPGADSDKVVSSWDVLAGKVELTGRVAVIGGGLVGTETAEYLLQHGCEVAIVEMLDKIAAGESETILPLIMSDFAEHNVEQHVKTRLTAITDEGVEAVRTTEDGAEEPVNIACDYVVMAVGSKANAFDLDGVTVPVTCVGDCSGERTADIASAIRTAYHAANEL

[8] = bacteroides fragilis, 12 h, 2 µM
Description: The drug is tested on Bacteroides fragilis strain: DS-208 for biotransformation. The drug concentrations were measured before and after a 12-h incubation by liquid-chromatography-coupled mass spectrometry (LC–MS)

[9] = parabacteroides johnsonii, 12 h, 2 µM
Description: The drug is tested on Parabacteroides johnsonii strain: DSM18315 for biotransformation. The drug concentrations were measured before and after a 12-h incubation by liquid-chromatography-coupled mass spectrometry (LC–MS)

Row | Bacterial Biotransformation [1] | Bacterial Biotransformation [2] | Bacterial Biotransformation [4] | Bacterial Biotransformation [5] | Bacterial Biotransformation [6] | Bacterial Biotransformation (Endoglucanase E (EGE)) | Bacterial Biotransformation (Lipoprotein) | Bacterial Biotransformation (Diguanylate cyclase) | Bacterial Biotransformation (Flavodoxin) | Bacterial Biotransformation (GDSL-like protein) | Bacterial Biotransformation [7] | Bacterial Biotransformation [8] | Bacterial Biotransformation [9] | Compound | Bacterial Biotransformation [3]
1 | Compound metabolized | Compound metabolized | Compound metabolized | Compound metabolized | Compound metabolized | Compound NOT metabolized | Compound NOT metabolized | Compound metabolized | Compound NOT metabolized | Compound NOT metabolized | Compound NOT metabolized | Compound metabolized | Compound metabolized | CCN(CC)C(=O)/C(C#N)=C/c1cc(O)c(O)c([N+](=O)[O-])c1 [ENTACAPONE] | –
2 | Compound metabolized | Compound metabolized | Compound metabolized | Compound metabolized | Compound metabolized | Compound NOT metabolized | Compound NOT metabolized | Compound NOT metabolized | Compound NOT metabolized | Compound NOT metabolized | Compound NOT metabolized | Compound metabolized | Compound metabolized | COc1ccnc(C[S+]([O-])c2nc3ccc(OC(F)F)cc3[nH]2)c1OC (stereo not drawn) [PANTOPRAZOLE] | –
3 | Compound metabolized | Compound metabolized | Compound metabolized | Compound NOT metabolized | Compound metabolized | Compound NOT metabolized | Compound NOT metabolized | Compound NOT metabolized | Compound NOT metabolized | Compound NOT metabolized | Compound NOT metabolized | Compound metabolized | Compound metabolized | CC(=O)OCC(=O)NCCCOc1cccc(CN2CCCCC2)c1 [ROXATIDINE ACETATE] | –

Row | Compound | Bacterial Biotransformation [1] | Bacterial Biotransformation [2] | Bacterial Biotransformation [4] | Bacterial Biotransformation [5] | Bacterial Biotransformation [6] | Bacterial Biotransformation (Endoglucanase E (EGE)) | Bacterial Biotransformation (Lipoprotein) | Bacterial Biotransformation (Diguanylate cyclase) | Bacterial Biotransformation (Flavodoxin) | Bacterial Biotransformation (GDSL-like protein) | Bacterial Biotransformation [7] | Bacterial Biotransformation [8] | Bacterial Biotransformation [9] | Bacterial Biotransformation [3]
4 | C[C@@H]1CC[C@H]2[C@@H](C)C(=O)O[C@@H]3O[C@@]4(C)CC[C@@H]1[C@]32OO4 [ARTEMISININ] | Compound metabolized | Compound metabolized | Compound metabolized | Compound metabolized | Compound metabolized | Compound NOT metabolized | Compound NOT metabolized | Compound NOT metabolized | Compound NOT metabolized | Compound NOT metabolized | Compound NOT metabolized | Compound metabolized | Compound metabolized | Compound metabolized
